Experimental data reported in ChEMBL document CHEMBL4219042, “Advances in macrocyclic peptide-based antibiotics” (2018).

Legend:
Assay type in all cases: functional
Escherichia coli [1] = test: Antibacterial activity against multidrug-resistant Escherichia coli 5237 after 16 to 20 hrs by agar dilution method
Escherichia coli [2] = test: Antibacterial activity against multidrug-resistant Escherichia coli 5353 after 16 to 20 hrs by agar dilution method
Escherichia coli [3] = test: Antibacterial activity against multidrug-resistant Escherichia coli 5364 after 16 to 20 hrs by agar dilution method
Escherichia coli [4] = test: Antibacterial activity against multidrug-resistant Escherichia coli 5539 after 16 to 20 hrs by agar dilution method
Pseudomonas aeruginosa [5] = test: Antibacterial activity against multidrug-resistant Pseudomonas aeruginosa 5215 after 16 to 20 hrs by agar dilution method
Pseudomonas aeruginosa [6] = test: Antibacterial activity against multidrug-resistant Pseudomonas aeruginosa 5298 after 16 to 20 hrs by agar dilution method
Pseudomonas aeruginosa [7] = test: Antibacterial activity against multidrug-resistant Pseudomonas aeruginosa 5313 after 16 to 20 hrs by agar dilution method
Pseudomonas aeruginosa [8] = test: Antibacterial activity against multidrug-resistant Pseudomonas aeruginosa 5510 after 16 to 20 hrs by agar dilution method
Pseudomonas aeruginosa [9] = test: Antibacterial activity against multidrug-resistant Pseudomonas aeruginosa 5585 after 16 to 20 hrs by agar dilution method

Measured: MIC

CCC(C)CCC(O)CC(=O)N[C@H](CCN)C(=O)N[C@H]1CCNC(=O)[C@H](CC(C)C)NC(=O)[C@H](CCN)NC(=O)[C@H](CCN)NC(=O)[C@@H](Cc2ccccc2)NC(=O)[C@H](CC(C)C)NC(=O)[C@H](CCN)NC1 (some centres undefined)
2 to 4 µg/mL: all assays above
